# According to US4849207A, “Porphyrin derivatives” (Nihon Medi-Physics Co., Ltd., priority 1985, dated 1989):
# Experiments:
# [1] = tested on: cancer cells of the pancreas; test: Laser irradiation to an extracted organ (excited fluorescent spectrum); assay type: in vivo, golden hamsters; details: golden hamster, 5 mg i.v., after 24 hours
# Protocol: Laser irradiation to an extracted organ (excited fluorescent spectrum):
# To each of golden hamsters (five animals being grouped) transplaned with nitrosoamine-induced cancer cells of the pancreas, DTPA-10EG PPB-Me (5 mg) diluted with 0.1M citrate buffer (1 ml) was administered intravenously 14 to 21 days after the transplantation, and cancer cells and other organs were extracted. To each of the organs as extracted, N2 -pulsed laser (N2 337 nm, 2 ns 400-1000 nm) was irradiated, and excited fluorescent spectrum was measured after 24 hours. Taking the peak wavelength of NADH at 470 nm as the standard (i.e. 1), the wavelength at 600 to 900 nm was calculated. The results are shown in Table 1, from which it is understood that a porphyrin-related substance has a remarkably selective affinity to cancer cells.
# [2] = tested on: inflammation (croton oil induced); test: Distribution in inflammation-induced rats, inflammation to tissue; assay type: in vivo, SD rats; details: SD rat, 72 hour post-injection; mean and s.d. for 3 animals
# Protocol: SD rats of about 200 grams in bodyweight received croton oil (0.1 ml) at the right hind leg subcutaneously to induce inflammation. […] The radioactivity level ratio between the inflamation and each tissue was determined.
# [3] = tested on: inflammation (turpentine oil induced); details: hamster, in vivo, 4320 min
# Protocol: (§1) Scintigraphy was obtained 72 and 96 hours after the administration by the use of a gamma-camera equipped with a medium energy high resolution type collimator.
# tumor = details: hamster, in vivo, 4320 min
# Protocol: as §1
molecule,measurement,setting,value
"C=Cc1c(C)c2cc3nc(c4c5[nH]c(cc6nc(cc1[nH]2)C(C)=C6CC)c(C)c5C(=O)C4)C(CCC(=O)OCCOC(=O)CN(CCN(CCN(CC(=O)O)CC(=O)O)CC(=O)O)CC(=O)O)C3C (stereo not shown) [DTPA--7EG pyroPPB, Ethylene glycol mono-diethylenetriaminetetraacetic acid-acetate mono-7c-pyropheophorbate]",excited fluorescence at 600 to 900 nm relative to NADH peak at 470 nm (=1): Cancer,[1],2.20
same,excited fluorescence at 600 to 900 nm relative to NADH peak at 470 nm (=1): Kidney,[1],0.25
same,excited fluorescence at 600 to 900 nm relative to NADH peak at 470 nm (=1): Liver,[1],0.87
same,excited fluorescence at 600 to 900 nm relative to NADH peak at 470 nm (=1): Lung,[1],1.23
same,excited fluorescence at 600 to 900 nm relative to NADH peak at 470 nm (=1): Serum,[1],0.39
"C=Cc1c(C)c2cc3nc(c4c5[nH]c(cc6nc(cc1[nH]2)C(C)=C6CC)c(C)c5C(=O)C4C(=O)OCCOC(=O)CN(CCN(CCN(CC(=O)O)CC(=O)O)CC(=O)O)CC(=O)O)C(CCC(=O)O)C3C (stereo not shown) [DTPA--10EG PPB, Ethylene glycol mono-diethylenetriamine-tetraacetic acid-acetate mono-10b-pheophorbate]",excited fluorescence at 600 to 900 nm relative to NADH peak at 470 nm (=1): Cancer,[1],1.20
same,excited fluorescence at 600 to 900 nm relative to NADH peak at 470 nm (=1): Kidney,[1],0.43
same,excited fluorescence at 600 to 900 nm relative to NADH peak at 470 nm (=1): Liver,[1],0.77
same,excited fluorescence at 600 to 900 nm relative to NADH peak at 470 nm (=1): Lung,[1],0.45
same,excited fluorescence at 600 to 900 nm relative to NADH peak at 470 nm (=1): Serum,[1],0.52
2-[1-(In-Diethylenetriamine-tetraacetic acid-acetyloxyethane)oxyethyl]-4-[1-(2-hydroxyethyl)oxyethyl] In-deuteroporphyrin [In--monoDTPA--EG In--DP],excited fluorescence at 600 to 900 nm relative to NADH peak at 470 nm (=1): Cancer,[1],0.30
same,excited fluorescence at 600 to 900 nm relative to NADH peak at 470 nm (=1): Kidney,[1],0.00
same,excited fluorescence at 600 to 900 nm relative to NADH peak at 470 nm (=1): Liver,[1],0.07
same,excited fluorescence at 600 to 900 nm relative to NADH peak at 470 nm (=1): Lung,[1],0.09
same,excited fluorescence at 600 to 900 nm relative to NADH peak at 470 nm (=1): Serum,[1],0.24
"2,4-Bis[1-(In-diethylenetriamine-tetraacetic acid-acetyloxyethane)oxyethyl] In-deuteroporphyrin [In--bisDTPA--EG In--DP]",excited fluorescence at 600 to 900 nm relative to NADH peak at 470 nm (=1): Cancer,[1],0.00
same,excited fluorescence at 600 to 900 nm relative to NADH peak at 470 nm (=1): Kidney,[1],0.05
same,excited fluorescence at 600 to 900 nm relative to NADH peak at 470 nm (=1): Liver,[1],0.25
same,excited fluorescence at 600 to 900 nm relative to NADH peak at 470 nm (=1): Lung,[1],0.05
same,excited fluorescence at 600 to 900 nm relative to NADH peak at 470 nm (=1): Serum,[1],0.05
"O=C([O-])CC(O)(CC(=O)[O-])C(=O)[O-].[67Ga+3] [Gallium (^67 Ga) citrate, gallium (^67 Ga) citrate]",Inflammation to tissue concentration ratio: Blood,[2],21.61 ± 6.47
same,Inflammation to tissue concentration ratio: Heart,[2],7.49 ± 3.37
same,Inflammation to tissue concentration ratio: Kidney,[2],5.04 ± 6.35
same,Inflammation to tissue concentration ratio: Liver,[2],0.69 ± 0.17
same,Inflammation to tissue concentration ratio: Lung,[2],5.41 ± 0.71
same,Inflammation to tissue concentration ratio: Muscle,[2],12.81 ± 4.61
same,Inflammation to tissue concentration ratio: Spleen,[2],0.64 ± 0.11
same,Inflammation to tissue concentration ratio: Blood,[3],17.55
same,Inflammation to tissue concentration ratio: Heart,[3],3.10
same,Inflammation to tissue concentration ratio: Kidney,[3],0.36
same,Inflammation to tissue concentration ratio: Liver,[3],0.33
same,Inflammation to tissue concentration ratio: Lung,[3],2.23
same,Inflammation to tissue concentration ratio: Muscle,[3],25.15
same,Inflammation to tissue concentration ratio: Spleen,[3],0.68
same,Tumor to tissue concentration ratio: Blood,tumor,9.89
same,Tumor to tissue concentration ratio: Heart,tumor,1.73
same,Tumor to tissue concentration ratio: Kidney,tumor,0.20
same,Tumor to tissue concentration ratio: Liver,tumor,0.18
same,Tumor to tissue concentration ratio: Lung,tumor,1.26
same,Tumor to tissue concentration ratio: Muscle,tumor,14.20
same,Tumor to tissue concentration ratio: Spleen,tumor,0.39
2-[1-(In-Diethylenetriamine-tetraacetic acid-acetyloxyethane)oxyethyl]-4-[1-(2-hydroxyethyl)oxyethyl] Ga-deuteroporphyrin [In--monoDTPA--EG Ga--DP],excited fluorescence at 600 to 900 nm relative to NADH peak at 470 nm (=1): Cancer,[1],0.50
same,excited fluorescence at 600 to 900 nm relative to NADH peak at 470 nm (=1): Kidney,[1],0.05
same,excited fluorescence at 600 to 900 nm relative to NADH peak at 470 nm (=1): Liver,[1],0.03
same,excited fluorescence at 600 to 900 nm relative to NADH peak at 470 nm (=1): Lung,[1],0.14
same,excited fluorescence at 600 to 900 nm relative to NADH peak at 470 nm (=1): Serum,[1],0.02
2-[1-(In-Diethylenetriamine-tetraacetic acid-acetyloxyethane)oxyethyl]-4-[1-(2-hydroxyethyl)oxyethyl] deuteroporphyrin dimethyl ester [In--DTPA--EG DP--Me],excited fluorescence at 600 to 900 nm relative to NADH peak at 470 nm (=1): Cancer,[1],0.83
same,excited fluorescence at 600 to 900 nm relative to NADH peak at 470 nm (=1): Kidney,[1],0.15
same,excited fluorescence at 600 to 900 nm relative to NADH peak at 470 nm (=1): Liver,[1],0.36
same,excited fluorescence at 600 to 900 nm relative to NADH peak at 470 nm (=1): Lung,[1],0.09
same,excited fluorescence at 600 to 900 nm relative to NADH peak at 470 nm (=1): Serum,[1],0.71
"C=Cc1c(C)c2cc3nc(c4c5[nH]c(cc6nc(cc1[nH]2)C(C)=C6CC)c(C)c5C(=O)C4C(=O)OC)C(CCC(=O)OCCOC(=O)CN(CCN(CCN(CC(=O)O)CC(=O)O)CC(=O)O)CC(=O)O)C3C (stereo not shown) [DTPA--7EG PPB, Ethylene glycol mono-diethylenetriaminetetraacetic acid-acetate mono-7c-pheophorbate]",excited fluorescence at 600 to 900 nm relative to NADH peak at 470 nm (=1): Cancer,[1],0.53
same,excited fluorescence at 600 to 900 nm relative to NADH peak at 470 nm (=1): Kidney,[1],0.32
same,excited fluorescence at 600 to 900 nm relative to NADH peak at 470 nm (=1): Liver,[1],0.33
same,excited fluorescence at 600 to 900 nm relative to NADH peak at 470 nm (=1): Lung,[1],0.30
same,excited fluorescence at 600 to 900 nm relative to NADH peak at 470 nm (=1): Serum,[1],0.31
"2,4-Bis[1-(In-diethylenetriamine-tetraacetic acid-acetyloxyethane)oxyethyl] Ga-deuteroporphyrin [In--bisDTPA--EG Ga--DP]",excited fluorescence at 600 to 900 nm relative to NADH peak at 470 nm (=1): Cancer,[1],0.40
same,excited fluorescence at 600 to 900 nm relative to NADH peak at 470 nm (=1): Kidney,[1],0.10
same,excited fluorescence at 600 to 900 nm relative to NADH peak at 470 nm (=1): Liver,[1],0.18
same,excited fluorescence at 600 to 900 nm relative to NADH peak at 470 nm (=1): Serum,[1],0.03
"CCC1=C(C)c2cc3[nH]c(cc4nc(c5c6[nH]c(cc1n2)c(C)c6C(=O)C5C(=O)OCCOC(=O)C1C(=O)c2c(C)c5cc6nc(cc7[nH]c(cc8nc(c1c2[nH]5)C(CCC(=O)O)C8C)c(C)c7C(C)I)C(C)=C6CC)C(CCC(=O)O)C4C)c(C)c3C(C)I (stereo not shown) [I2 PPB Dimer, Bis[2-desethenyl-2-(1-iodoethyl)pheophobide]ethylene glycol diester]",excited fluorescence at 600 to 900 nm relative to NADH peak at 470 nm (=1): Cancer,[1],0.82
same,excited fluorescence at 600 to 900 nm relative to NADH peak at 470 nm (=1): Kidney,[1],0.07
same,excited fluorescence at 600 to 900 nm relative to NADH peak at 470 nm (=1): Liver,[1],0.31
same,excited fluorescence at 600 to 900 nm relative to NADH peak at 470 nm (=1): Lung,[1],0.20
same,excited fluorescence at 600 to 900 nm relative to NADH peak at 470 nm (=1): Serum,[1],1.58
"C=Cc1c(C)c2cc3nc(c4c5[nH]c(cc6nc(cc1[nH]2)C(C)=C6CC)c(C)c5C(=O)C4C(=O)OCCOC(=O)CN(CCN(CCN(CC(=O)O)CC(=O)O)CC(=O)O)CC(=O)O)C(CCC(=O)OC)C3C (stereo not shown) [DTPA--10EG PPB--Me, Ethylene glycol monodiethylenetriaminetetraacetic acid-acetate mono-10b-methylpheophorbate]",excited fluorescence at 600 to 900 nm relative to NADH peak at 470 nm (=1): Cancer,[1],2.73
same,excited fluorescence at 600 to 900 nm relative to NADH peak at 470 nm (=1): Kidney,[1],0.37
same,excited fluorescence at 600 to 900 nm relative to NADH peak at 470 nm (=1): Liver,[1],0.69
same,excited fluorescence at 600 to 900 nm relative to NADH peak at 470 nm (=1): Lung,[1],0.47
same,excited fluorescence at 600 to 900 nm relative to NADH peak at 470 nm (=1): Serum,[1],0.53
